# Assay results reported in paper PMC3258498 (Journal of Medicinal Chemistry, 2011).
# Several values for one entry are separate records, joined by “and”; a condition that tells them apart may be missing. Equal values may be shown once. Read-outs that look alike come from different tables or passages of the source.
# How the values were obtained:
# WT HIV-1 = settings: cited from earlier work
# HIV-1 Y181C variant [1] = settings: read-out: activity for the Y181C-containing variant; cited from earlier work
# HIV-1 Y181C variant [2] = settings: read-out: EC50 Y181C; Literature data, MT4 cells; cited from earlier work
# [3] = tested on: HIV-1 K103N/Y181C variant; settings: read-out: EC50 K103N/Y181C; Literature data, MT4 cells; cited from earlier work
# [4] = tested on: IIIB strain of HIV-1 (WT); assay: Anti-HIV-1 activity in infected MT-2 human T-cells, MTT colorimetric method; type: cell-based; settings: for gain in potency: in going from 1
# [5] = read-out: activity for WT HIV-1
structure (smiles),measurement,setting,value
"Cc1cc(/C=C/C#N)cc(C)c1Nc1ccnc(Nc2ccc(C#N)cc2)n1 [compound 39, 4-[[4-[[4-[(1E)-2-cyanoethenyl]-2,6-dimethylphenyl]amino]-2-pyrimidinyl]amino]benzonitrile]",EC50,WT HIV-1; [5],< 5 nM
same,EC50,HIV-1 Y181C variant [1],< 5 nM
Cc1ccnc2c1NC(=O)c1cccnc1N2C1CC1 [nevirapine],EC50,HIV-1 Y181C variant [2],> 10000 nM
same,EC50,[3],> 10000 nM
CCc1c(C)[nH]c(=O)c(I)c1Oc1cccc(/C=C/C#N)c1 [compound 38],EC50,WT HIV-1; [5],< 5 nM
same,EC50,HIV-1 Y181C variant [1],< 5 nM
O=c1ccn(CCOc2ccc(Cl)cc2Cc2c(Cl)cccc2Cl)c(=O)[nH]1 [compound 11],gain in potency,[4],ca. 15 fold
Cc1cc(C)cc(Oc2c(CSCc3ccco3)c(C)[nH]c(=O)c2I)c1 [compound 3],EC50,WT HIV-1; read-out: activity towards WT HIV-1,1 to 10 nM and 2 nM
N#Cc1ccc(Oc2cc(Cl)ccc2Cl)c(OCCc2ccncc2)c1 [compound 33],worsening of the EC50 value,[4]; relative to 31,18 fold
O=c1ccn(CCOc2ccc(Cl)cc2Cc2cc(Cl)ccc2Cl)c(=O)[nH]1 [compound 10],gain in potency,[4],ca. 15 fold
